The results in this text go back to PubChem BioAssay (NCI).

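The compound was tested at five concentrations on cells cultured in 96-well plates, with a 48-hour exposure period. Here, GI50 denotes the concentration required for 50% inhibition of growth. The concentration for full growth arrest is given as TGI.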

Some test systems named below: SNB-75 CNS; BT-549 breast; U251 CNS; M14 melanoma; OVCAR-3 ovarian; NCI/ADR-RES ovarian; CAKI-1 renal; SK-MEL-2 melanoma.
What all share (test): inhibition of tumour cell growth, NCI panel, 48 h

Consider `Nc1cccc2c1CN(C1CCC(=O)NC1=O)C2=O` (stereo unspecified), for which the GI50 in the assay on SNB-75 CNS, with BT-549 breast, in the assay on U251 CNS, in the assay with M14 melanoma, with OVCAR-3 ovarian and in the assay with NCI/ADR-RES ovarian was greater than 100 µM each time. Moreover, the GI50 in the assay with CAKI-1 renal and with SK-MEL-2 melanoma was greater than 100 µM throughout. In addition, the TGI in the assay on SNB-75 CNS, in the assay with BT-549 breast, in the assay with U251 CNS, in the assay with M14 melanoma, in the assay on OVCAR-3 ovarian and with NCI/ADR-RES ovarian was greater than 100 µM throughout. For the same compound, the TGI in the assay on CAKI-1 renal and in the assay with SK-MEL-2 melanoma was greater than 100 µM throughout.
On to `CCN1CCN(CC(=O)Nc2nc3ccc(NCc4ccc(C)cc4)cc3s2)CC1`, for which the GI50 in the assay on SNB-75 CNS is 2.69 µM; with BT-549 breast, 6.45 µM; with U251 CNS, 2.77 µM; with M14 melanoma it was 1.14 µM; in the assay on OVCAR-3 ovarian, 4.93 µM; with NCI/ADR-RES ovarian, 5.98 µM. Moreover, the GI50 in the assay with CAKI-1 renal was 3.48 µM; in the assay with SK-MEL-2 melanoma, 5.53 µM. The TGI is 9.42 µM in the assay with SNB-75 CNS; 19.3 µM in the assay with BT-549 breast; 9.14 µM in the assay with U251 CNS; 2.19 µM with M14 melanoma; 13.7 µM in the assay on OVCAR-3 ovarian; 21.6 µM with NCI/ADR-RES ovarian. The TGI in the assay with CAKI-1 renal was determined as 10.5 µM; with SK-MEL-2 melanoma it was 12.8 µM.
`CCCCCCCCn1ccc2cc(NC(=O)Cn3cc(CN4CCC(C)CC4)nn3)ccc21`: the GI50 with SNB-75 CNS is 1.48 µM; in the assay on BT-549 breast, 1.53 µM; with U251 CNS it was 1.7 µM; in the assay with M14 melanoma it was 1.63 µM; in the assay with OVCAR-3 ovarian, 1.71 µM; in the assay with NCI/ADR-RES ovarian, 1.92 µM. Moreover, the GI50 was 1.67 µM in the assay on CAKI-1 renal and 1.85 µM in the assay on SK-MEL-2 melanoma. In addition, the TGI is 2.82 µM in the assay with SNB-75 CNS; 3.01 µM in the assay on BT-549 breast; 3.15 µM in the assay with U251 CNS; 3.08 µM in the assay on M14 melanoma; 3.19 µM with OVCAR-3 ovarian; 3.99 µM in the assay with NCI/ADR-RES ovarian. Moreover, the TGI with CAKI-1 renal came out at 3.15 µM; with SK-MEL-2 melanoma, 3.53 µM.
`COc1ccc(C2c3cc4c(c(OC)c3CC3OCC(=O)C32)OCO4)cc1OC` (stereo unspecified): the GI50 in the assay on BT-549 breast, in the assay with U251 CNS, in the assay with M14 melanoma, in the assay with NCI/ADR-RES ovarian and in the assay on CAKI-1 renal was less than 0.01 µM throughout. The TGI in the assay on BT-549 breast was greater than 100 µM; with U251 CNS it was greater than 100 µM; with M14 melanoma, greater than 100 µM; in the assay with NCI/ADR-RES ovarian it was 28.4 µM; in the assay with CAKI-1 renal, 11.3 µM; with SK-MEL-2 melanoma, greater than 100 µM.
Turning to `C/C(=C\CCc1ccsc1)CC/C=C(\C)CCCN1CCN(CCO)CC1`, the GI50 was 2.45 µM in the assay with SNB-75 CNS; 2.78 µM in the assay on BT-549 breast; 2.27 µM in the assay with U251 CNS; 2.05 µM in the assay with M14 melanoma; 3.16 µM with OVCAR-3 ovarian; 3.48 µM with NCI/ADR-RES ovarian. Further, the GI50 with CAKI-1 renal was 4.26 µM. Also, the TGI in the assay with SNB-75 CNS amounted to 8.51 µM; in the assay with BT-549 breast, 10.9 µM; with U251 CNS, 7.28 µM; with M14 melanoma, 4.2 µM; in the assay on OVCAR-3 ovarian, 11.2 µM; with NCI/ADR-RES ovarian, 13.5 µM. This compound showed a TGI in the assay with CAKI-1 renal of 16.4 µM.
As to `Cc1ccc(NC(C(=O)c2ccccc2)c2ccccc2)cc1` (stereo unspecified), the GI50 with SNB-75 CNS was 3.58 µM; with U251 CNS, 4.24 µM; in the assay on M14 melanoma, 4 µM; in the assay with OVCAR-3 ovarian it was 3.31 µM; with NCI/ADR-RES ovarian, 18.8 µM; in the assay with CAKI-1 renal it was 10.6 µM. In addition, the TGI was 20.3 µM with SNB-75 CNS; 25.1 µM with U251 CNS; 33.4 µM in the assay on M14 melanoma; 59.9 µM in the assay on OVCAR-3 ovarian; greater than 100 µM with NCI/ADR-RES ovarian; 39.7 µM with CAKI-1 renal.
In the case of `C=C1C(=O)O[C@H]2[C@H]1CC/C(COC(=O)c1cccc3ccccc13)=C\CC[C@@]1(C)O[C@@H]21`, the GI50 in the assay with SNB-75 CNS was 3.04 µM; in the assay on BT-549 breast, 1.05 µM; with U251 CNS it was 1.39 µM; in the assay on M14 melanoma, 1.42 µM; with OVCAR-3 ovarian, 1.39 µM; with NCI/ADR-RES ovarian it was 2.19 µM. For the same compound, the GI50 with SK-MEL-2 melanoma was 1.63 µM. The TGI was determined as 13.3 µM with SNB-75 CNS; 2.37 µM in the assay with BT-549 breast; 2.68 µM in the assay with U251 CNS; 3.21 µM with M14 melanoma; 2.76 µM in the assay with OVCAR-3 ovarian; 6.45 µM in the assay on NCI/ADR-RES ovarian. In the assay on SK-MEL-2 melanoma, the TGI is 3.38 µM.
On to `CC(=O)Nc1c(I)c(C(=O)O)c(I)c(N(C)C(C)=O)c1I`, for which the GI50 in the assay on SNB-75 CNS, in the assay with BT-549 breast, in the assay on U251 CNS, in the assay with M14 melanoma, with OVCAR-3 ovarian and with NCI/ADR-RES ovarian was greater than 100 µM each time. The GI50 in the assay with CAKI-1 renal and with SK-MEL-2 melanoma was greater than 100 µM each time. Moreover, the TGI in the assay with SNB-75 CNS, in the assay on BT-549 breast, with U251 CNS, with M14 melanoma, in the assay with OVCAR-3 ovarian and in the assay on NCI/ADR-RES ovarian was greater than 100 µM throughout. Also, the TGI in the assay on CAKI-1 renal and with SK-MEL-2 melanoma was greater than 100 µM throughout.
Take `Cc1cc(Br)c2nsnc2c1[N+](=O)[O-]`: the GI50 was 3.46 µM with SNB-75 CNS; 3.95 µM with BT-549 breast; 2.73 µM in the assay on U251 CNS; 1.77 µM with M14 melanoma; 1.69 µM in the assay on OVCAR-3 ovarian; 4.54 µM in the assay on NCI/ADR-RES ovarian. Moreover, the figures for the GI50 in the assay on CAKI-1 renal and with SK-MEL-2 melanoma were 1.6 µM and 3.45 µM, respectively. The TGI was determined as 15.4 µM with SNB-75 CNS; 12 µM in the assay on BT-549 breast; 8.12 µM with U251 CNS; 3.32 µM in the assay on M14 melanoma; 3.08 µM in the assay on OVCAR-3 ovarian; 20.7 µM in the assay on NCI/ADR-RES ovarian. For the same compound, the TGI in the assay with CAKI-1 renal was 3.26 µM; with SK-MEL-2 melanoma it was 8.89 µM.
